From PubChem BioAssay AID2060904 (Molecular Pharmacology Branch, DTP, NCI, 2025)

Tested on: 349418-098-R-PDC complex spheroid viability
Assay: Anticancer human tumor 349418-098-R-PDC patient-derived lung adenocarcinoma cell line growth inhibition [RAS]
Settings: for viability, T/C: stronger effect = lower value; active = viability on the fitted dose curve at most 10% of control; inactive = the rest
Procedure, shortened: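 Agents were tested in combination matrices in half-log decrements from a top concentration at or near clinical Cmax (10 microM if undetermined). Targets were multi-cell spheroids of tumour lines plus HUVEC and MSC stromal cells.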

[1] = curve of first compound, second compound 0.000949 µM
[2] = curve of first compound, second compound 0.003 µM
[3] = curve of first compound, second compound 0.00949 µM
[4] = curve of first compound, second compound 0.03 µM
[5] = curve of first compound, second compound 0.0949 µM
[6] = curve of first compound, second compound 0.3 µM
[7] = second compound 0.000949 µM, first compound 0.0316 µM
[8] = second compound 0.000949 µM, first compound 0.1 µM
[9] = second compound 0.000949 µM, first compound 0.316 µM
[10] = second compound 0.000949 µM, first compound 1 µM
[11] = second compound 0.003 µM, first compound 0.0316 µM
[12] = second compound 0.003 µM, first compound 0.1 µM
[13] = second compound 0.003 µM, first compound 0.316 µM
[14] = second compound 0.003 µM, first compound 1 µM
[15] = second compound 0.00949 µM, first compound 0.0316 µM
[16] = second compound 0.00949 µM, first compound 0.1 µM
[17] = second compound 0.00949 µM, first compound 0.316 µM
[18] = second compound 0.00949 µM, first compound 1 µM
[19] = second compound 0.03 µM, first compound 0.0316 µM
[20] = second compound 0.03 µM, first compound 0.1 µM
[21] = second compound 0.03 µM, first compound 0.316 µM
[22] = second compound 0.03 µM, first compound 1 µM
[23] = second compound 0.0949 µM, first compound 0.0316 µM
[24] = second compound 0.0949 µM, first compound 0.1 µM
[25] = second compound 0.0949 µM, first compound 0.316 µM
[26] = second compound 0.0949 µM, first compound 1 µM
[27] = second compound 0.3 µM, first compound 0.0316 µM
[28] = second compound 0.3 µM, first compound 0.1 µM
[29] = second compound 0.3 µM, first compound 0.316 µM
[30] = second compound 0.3 µM, first compound 1 µM
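Note: spheroids exposed to compound for seven days before viability readout.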

C[C@@H](NC(=O)c1ncnc(N)c1Cl)c1ncc(C(=O)Nc2cc(C(F)(F)F)c(Cl)cn2)s1 + CCn1c(-c2cccnc2C(C)OC)c2c3cc(ccc31)N1CCOC(CC(NC(=O)C(C(C)C)N(C)C(=O)C3(F)CCN(C(=O)C#CC(C)(C)N(C)C)CC3)C(=O)N3CCCC(N3)C(=O)OCC(C)(C)C2)C1
inactive: viability, T/C [7] 113% | viability, T/C [8] 106% | viability, T/C [9] 90.3% | viability, T/C [10] 55.4% | viability, T/C (second compound 0.000949 µM, first compound 3.16 µM) 29.4% | viability, T/C (second compound 0.000949 µM, first compound 10 µM) 20.2% | viability, T/C [11] 117% | viability, T/C [12] 97.5% | viability, T/C [13] 88.3% | viability, T/C [14] 58.2% | viability, T/C (second compound 0.003 µM, first compound 3.16 µM) 32.5% | viability, T/C (second compound 0.003 µM, first compound 10 µM) 19.4% | viability, T/C [15] 94.7% | viability, T/C [16] 92.5% | viability, T/C [17] 73.9% | viability, T/C [18] 47.5% | viability, T/C (second compound 0.00949 µM, first compound 3.16 µM) 45.1% | viability, T/C (second compound 0.00949 µM, first compound 10 µM) 18.4% | viability, T/C [19] 114% | viability, T/C [20] 84.2% | viability, T/C [21] 82% | viability, T/C [22] 61.4% | viability, T/C (second compound 0.03 µM, first compound 3.16 µM) 33.7% | viability, T/C (second compound 0.03 µM, first compound 10 µM) 19.5% | viability, T/C [23] 97.2% | viability, T/C [24] 96.5% | viability, T/C [25] 89.3% | viability, T/C [26] 72.4% | viability, T/C (second compound 0.0949 µM, first compound 3.16 µM) 32.5% | viability, T/C (second compound 0.0949 µM, first compound 10 µM) 16.8% | viability, T/C [27] 107% | viability, T/C [28] 81.2% | viability, T/C [29] 66.5% | viability, T/C [30] 57.4% | viability, T/C (second compound 0.3 µM, first compound 3.16 µM) 40.9% | viability, T/C (second compound 0.3 µM, first compound 10 µM) 14.8%
1230 nM: IC50 [6]
1500 nM: IC50 [2]
1580 nM: IC50 [4]
1280 nM: IC50 [1]
1900 nM: IC50 [5]
1430 nM: IC50 [3]

CC1(C)CCC(Nc2ncc(C(F)(F)F)c(-c3c[nH]c4c(P(C)(C)=O)c(C#N)ccc34)n2)CN1 (centres undefined) + C#Cc1c(F)ccc2cc(O)cc(-c3ncc4c(N5CC6CCC(C5)N6)nc(OCC56CCCN5CC(F)C6)nc4c3F)c12
1.34 nM: IC50 (curve of first compound, second compound 1 µM)
active: viability, T/C (second compound 0.0316 µM, first compound 0.0949 µM) 11.1% | viability, T/C (second compound 0.0316 µM, first compound 0.3 µM) 7.01% | viability, T/C (second compound 0.1 µM, first compound 0.0949 µM) 8.49% | viability, T/C (second compound 0.1 µM, first compound 0.3 µM) 8.13% | viability, T/C (second compound 0.316 µM, first compound 0.03 µM) 10.3% | viability, T/C (second compound 0.316 µM, first compound 0.0949 µM) 10.5% | viability, T/C (second compound 0.316 µM, first compound 0.3 µM) 8.25% | viability, T/C (second compound 3.16 µM, first compound 0.03 µM) 10.2% | viability, T/C (second compound 3.16 µM, first compound 0.0949 µM) 9.93% | viability, T/C (second compound 3.16 µM, first compound 0.3 µM) 8.57% | viability, T/C (second compound 10 µM, first compound 0.0949 µM) 9.78% | viability, T/C (second compound 10 µM, first compound 0.3 µM) 7.07%
< 0.949 nM: IC50 (curve of first compound, second compound 0.1 µM) | IC50 (curve of first compound, second compound 0.316 µM) | IC50 (curve of first compound, second compound 3.16 µM) | IC50 (curve of first compound, second compound 10 µM)
1.12 nM: IC50 (curve of first compound, second compound 0.0316 µM)
inactive: viability, T/C (second compound 0.0316 µM, first compound 0.000949 µM) 54.5% | viability, T/C (second compound 0.0316 µM, first compound 0.003 µM) 25.6% | viability, T/C (second compound 0.0316 µM, first compound 0.00949 µM) 14.3% | viability, T/C (second compound 0.0316 µM, first compound 0.03 µM) 11.7% | viability, T/C (second compound 0.1 µM, first compound 0.000949 µM) 34.8% | viability, T/C (second compound 0.1 µM, first compound 0.003 µM) 24% | viability, T/C (second compound 0.1 µM, first compound 0.00949 µM) 17% | viability, T/C (second compound 0.1 µM, first compound 0.03 µM) 9.95% | viability, T/C (second compound 0.316 µM, first compound 0.000949 µM) 49.9% | viability, T/C (second compound 0.316 µM, first compound 0.003 µM) 26.9% | viability, T/C (second compound 0.316 µM, first compound 0.00949 µM) 12.6% | viability, T/C (second compound 1 µM, first compound 0.000949 µM) 57.1% | viability, T/C (second compound 1 µM, first compound 0.003 µM) 33.4% | viability, T/C (second compound 1 µM, first compound 0.00949 µM) 13% | viability, T/C (second compound 1 µM, first compound 0.03 µM) 10.9% | viability, T/C (second compound 1 µM, first compound 0.0949 µM) 11.2% | viability, T/C (second compound 1 µM, first compound 0.3 µM) 8.31% | viability, T/C (second compound 3.16 µM, first compound 0.000949 µM) 43.3% | viability, T/C (second compound 3.16 µM, first compound 0.003 µM) 24.5% | viability, T/C (second compound 3.16 µM, first compound 0.00949 µM) 12.6% | viability, T/C (second compound 10 µM, first compound 0.000949 µM) 48.4% | viability, T/C (second compound 10 µM, first compound 0.003 µM) 23.8% | viability, T/C (second compound 10 µM, first compound 0.00949 µM) 16.3% | viability, T/C (second compound 10 µM, first compound 0.03 µM) 10.4%

Nc1ccn(C2OC(CO)C(O)C2(F)F)c(=O)n1 (centres undefined) + CCn1c(-c2cc(N3CCN(C)CC3)cnc2C(C)OC)c2c3cc(ccc31)-c1csc(n1)CC(NC(=O)C1CC1C)C(=O)N1CCCC(N1)C(=O)OCC(C)(C)C2
inactive: viability, T/C (second compound 0.000949 µM, first compound 0.00316 µM) 33.4% | viability, T/C (second compound 0.003 µM, first compound 0.00316 µM) 21.9% | viability, T/C (second compound 0.00949 µM, first compound 0.00316 µM) 24.4% | viability, T/C (second compound 0.03 µM, first compound 0.00316 µM) 29% | viability, T/C (second compound 0.0949 µM, first compound 0.00316 µM) 43.2% | viability, T/C (second compound 0.0949 µM, first compound 0.01 µM) 10.6% | viability, T/C (second compound 0.3 µM, first compound 0.00316 µM) 46.8% | viability, T/C (second compound 0.3 µM, first compound 0.01 µM) 16.9%
< 3.16 nM: IC50 [1] | IC50 [2] | IC50 [3] | IC50 [4] | IC50 [5] | IC50 [6]
active: viability, T/C (second compound 0.000949 µM, first compound 0.01 µM) 6.66% | viability, T/C [7] 5.75% | viability, T/C [8] 4.77% | viability, T/C [9] 5.22% | viability, T/C [10] 4.87% | viability, T/C (second compound 0.003 µM, first compound 0.01 µM) 6.3% | viability, T/C [11] 5.15% | viability, T/C [12] 4.81% | viability, T/C [13] 4.73% | viability, T/C [14] 4.09% | viability, T/C (second compound 0.00949 µM, first compound 0.01 µM) 6.44% | viability, T/C [15] 5.46% | viability, T/C [16] 4.39% | viability, T/C [17] 5.27% | viability, T/C [18] 4.67% | viability, T/C (second compound 0.03 µM, first compound 0.01 µM) 9.12% | viability, T/C [19] 4.98% | viability, T/C [20] 5.4% | viability, T/C [21] 5.08% | viability, T/C [22] 5.39% | viability, T/C [23] 4.96% | viability, T/C [24] 5.29% | viability, T/C [25] 5.26% | viability, T/C [26] 4.88% | viability, T/C [27] 6.97% | viability, T/C [28] 5.92% | viability, T/C [29] 5.96% | viability, T/C [30] 5.73%

Cc1nc(N2CCC3(CC2)COC(C)C3N)c(CO)nc1Sc1ccnc(N)c1Cl (centres undefined)
inactive: viability, T/C (compound 0.0316 µM) 91.6% [middle of 4 runs] | viability, T/C (compound 0.1 µM) 102% [middle of 4 runs] | viability, T/C (compound 0.316 µM) 101% [middle of 4 runs] | viability, T/C (compound 3.16 µM) 100% [middle of 4 runs] | viability, T/C (compound 10 µM) 95.3% [middle of 4 runs]
> 10000 nM: IC50 (curve of compound)

CCc1c2c(nc3ccc(O)cc13)-c1cc3c(c(=O)n1C2)COC(=O)[C@]3(O)CC
17.2% [middle of 4 runs]: viability, T/C (compound 0.00949 µM)
active: viability, T/C (compound 0.03 µM) 6.46% [middle of 4 runs] | viability, T/C (compound 0.0949 µM) 3.27% [middle of 4 runs] | viability, T/C (compound 0.3 µM) 2.43% [middle of 4 runs]
2.32 nM [middle of 4 runs]: IC50 (curve of compound)
inactive: viability, T/C (compound 0.000949 µM) 82% [middle of 4 runs] | viability, T/C (compound 0.003 µM) 39.4% [middle of 4 runs]
